Laboratory results from patent US6730332B2, “Herbal composition having antiallergic properties and a process for the preparation thereof” (Natural Remedies Pvt. Ltd., priority 2000, dated 2004).
Values belong to the compound of their own block, whether it stands above or below them.

Experiments:
mast cells = assay: mast cell stabilization bioassay; assay type: cell-based, rats
Description: The present invention is based on our experience and knowledge about the usage of various herbs along with our in depth studies on traditional literature. For this project a number of plants and plant preparations were selected for detailed studies. The selected plants/extracts were then subjected to the mast cell stabilization bioassay. This bioassay has been reported to be one of the important tools in detecting the substances having antiallergic activity. In this context reference may be made to “Rajashekharan M. et al, J. Drug Dev., 1989, 2(3), 179-182.” Mast cells are basophilic cells in subcutaneous and connective tissue. They are found in large numbers in mesentery of rats and contain numerous membrane bounded granules, which contain strong pharmacologically active mediators such as histamine, SRS-A, Serotonin, bradykinin etc. The role of mast cells in pathogenesis of allergic disease has been well recognized. Mast cells contain receptors for Fc fragment of IgE antibodies. Therefore, IgE antibodies formed on exposure to antigen will combine with the mast cells. On subsequent re-exposure to the same antigen, there occurs an antigen antibody reaction which will initiate mast cell de-granulation in a similar manner as that of de-granulating agents like carbachol or the compound which is the condensation product of N-methyl-p-methoxyphenylamine with formaldehyde. […]

mouse paw edema = assay: Compound 48/80 induced mouse paw edema; assay type: in vivo, mice; conditions: 1 mg/kg mouse body weight, P<0.05
Protocol: Compound 48/80 (Condensation product of N-methyl-p-methoxyphenylamine with formaldehyde) was used to induce mouse paw edema in mice. In this context the reference may be made to Nair A M, Tamhankar C P and Saraf M N (1995) Indian drugs, 32(6), 277-282. The animals were treated with NR-A2 at doses of 175, 225 and 275 mg/kg body weight orally 30 days prior to the test. Standard group received Ketotifen in the dose of 1 mg/kg b.w.

active paw anaphylaxis = assay: Active paw anaphylaxis in mice; assay type: in vivo; conditions: 14 mg/kg body weight, P<0.05
Protocol: Active paw anaphylaxis in mice was studied using egg albumin as the antigen adsorbed on aluminum hydroxide. In this context the reference may be made to Ghoosi R. B, Bhide M. B, (1981) Allergy Appl. Immunol., 15, 53. and Nair A. M. et al. (1995) Indian Drugs, 32(6), 277-282. The mice were dosed with NR-A2 at different doses orally in 0.5% CMC for 30 days. Prednisolone was taken as the standard. On 31st day they were sensitized with antigen, and the treatment continued. On 12^Th day after sensitization the animals were re-challenged with egg albumin in saline subcutaneously in plantar region of right hind paw while the contralateral paw received an equal volume of saline. Paw thickness was measured using pocket thickness gauge (Mitutoyo Manufacturing Co. Japan) 15 minutes after the challenge. The difference in paw thickness of right paw compared to the left paw, reflected the edema due to antigen-antibody reaction.

[1] = test system: Freund's adjuvant induced paw edema; assay: Adjuvant induced arthritis; assay type: in vivo, albino wistar rats; conditions: standard, rats, P<0.05
Protocol: Freund's adjuvant is a mixture of dead mycobacterium finely ground in liquid paraffin at a concentration of 5 mg/ml. When injected in hind paw it produces an edema characterised as a bi-phasic response, which persists up to 21 days. The injection of Freund's adjuvant in rat hind paw produces conditions similar to rheumatoid arthritis, a delayed hypersensitivity reaction.
NR-A2 was administered to albino wistar rats orally at doses of 150, 250 and 350 mg to body weight for 30 days before and 21 days after injecting Freund's adjuvant. Paw volume was measured using plethesmograph.

systemic anaphylaxis = assay: Compound 48/80 induced systemic anaphylaxis in rats; assay type: in vivo; conditions: 10 mg/kg
Description: The effect of NR-A2 in compound 48/80 (Condensation product of N-methyl-p-methoxyphenylamine with formaldehyde) induced systemic anaphylaxis was studied in rats. In this context the reference may be made to Y. M. Lee, Kim D. K, (1996) Journal of Ethnopharmacology, 54, 77-84. The animals were divided into five groups, one served as control, one standard and three groups for NR-A2. The standard (Prednisolone), NRA-2 & vehicle were given 30 days prior to intra-peritoneal administration of compound 48/80 (Condensation product of N-methyl-p-methoxyphenylamine with formaldehyde). The dose of Prednisolone was 10 mg/kg while those of NR-A2 were 150, 250, 350 mg/kg b.w. Number of deaths per group within one hour were calculated.

- EC50, mast cell stabilizing activity (mast cells; selected prototypes (Table 2)): 3.66 µg/mL
Structure (SMILES): O=C([O-])c1cc(=O)c2c(OCC(O)COc3cccc4oc(C(=O)[O-])cc(=O)c34)cccc2o1.[Na+].[Na+] [Disodiumchromoglycate]
- EC50 values (mast cells; mast cell stabilization assay, screening of plant extracts (Table 1)): 3.68 µg/mL

Structure (SMILES): CN1CCC(=C2c3ccccc3CC(=O)c3sccc32)CC1 [Ketotifen]
- inhibition of paw edema (mouse paw edema): 64.22%

Structure (SMILES): C[C@]12C=CC(=O)C=C1CC[C@@H]1[C@@H]2[C@@H](O)C[C@@]2(C)[C@H]1CC[C@]2(O)C(=O)CO [Prednisolone]
- inhibition of paw edema (active paw anaphylaxis): 74.03%
- inhibition of adjuvant paw edema [1]: 95.63%
- inhibition of compound 48/80 induced anaphylaxis (deaths within one hour) (systemic anaphylaxis): 62.97%
